Laboratory results taken from ChEMBL document CHEMBL2440042, “Anti-proliferative activity of hydnocarpin, a natural lignan, is associated with the suppression of Wnt/β-catenin signaling pathway in colon cancer cells” (Bioorg Med Chem Lett, 2013).
Activity calls are given as the source filed them. The rule behind the calls is not given here.

Columns and labels:
SW480 [1] = assay: Inhibition of Wnt/beta-catenin signaling pathway in human SW480 cells assessed as Axin2 protein expression at 20 uM after 12 hrs by Western blotting analysis relative to vehicle-treated control
SW480 [2] = assay: Inhibition of Wnt/beta-catenin signaling pathway in human SW480 cells assessed as GSK3-beta protein expression at 20 uM after 12 hrs by Western blotting analysis relative to vehicle-treated control
SW480 [3] = assay: Inhibition of Wnt/beta-catenin signaling pathway in human SW480 cells assessed as beta-catenin protein expression at 5 uM after 24 hrs by Immunoblotting analysis relative to vehicle-treated control
SW480 [4] = assay: Inhibition of Wnt/beta-catenin signaling pathway in human SW480 cells assessed as increase in phosphorylation of beta-catenin at Ser45 at 5 uM after 12 hrs by Western blotting analysis relative to vehicle-treated control
SW480 [5] = assay: Inhibition of Wnt/beta-catenin signaling pathway in human SW480 cells assessed as dvl2 protein expression at 10 uM after 24 hrs by Western blotting analysis relative to vehicle-treated control
SW480 [6] = assay: Inhibition of Wnt/beta-catenin signaling pathway in human SW480 cells assessed as Axin2 protein expression at 10 uM after 24 hrs by Western blotting analysis relative to vehicle-treated control
SW480 [7] = assay: Growth inhibition in human SW480 cells at 1 to 20 uM after 72 hrs by SRB assay in presence of axin1 siRNA; assay type: functional, cell-based
SW480 [8] = assay: Inhibition of Wnt/beta-catenin signaling pathway in human SW480 cells assessed as beta-catenin protein expression at 20 uM after 12 hrs by Western blotting analysis relative to vehicle-treated control
SW480 [9] = assay: Inhibition of Wnt/beta-catenin signaling pathway in human SW480 cells after 24 hrs by FOPflash luciferase reporter gene assay relative to vehicle-treated control; assay type: cell-based
SW480 [10] = assay: Inhibition of Wnt/beta-catenin signaling pathway in human SW480 cells assessed as dvl3 protein expression at 20 uM after 12 hrs by Western blotting analysis relative to vehicle-treated control
SW480 [11] = assay: Inhibition of Wnt/beta-catenin signaling pathway in human SW480 cells assessed as GSK3-beta protein expression at 10 uM after 12 hrs by Western blotting analysis relative to vehicle-treated control
HEK293 = assay: Inhibition of Wnt/beta-catenin signaling pathway in human HEK293 cells after 24 hrs by dual luciferase reporter gene assay relative to vehicle-treated control; assay type: cell-based
SW480 [12] = assay: Inhibition of Wnt/beta-catenin signaling pathway in human SW480 cells assessed as Axin1 protein expression at 5 uM after 24 hrs by Immunoblotting analysis relative to vehicle-treated control
SW480 [13] = assay: Inhibition of Wnt/beta-catenin signaling pathway in human SW480 cells assessed as phosphorylated (S45) beta-catenin protein expression at 10 uM after 24 hrs by Western blotting analysis relative to vehicle-treated control
SW480 [14] = assay: Inhibition of Wnt/beta-catenin signaling pathway in human SW480 cells assessed as Axin2 protein expression at 10 uM after 24 hrs by Immunoblotting analysis relative to vehicle-treated control
SW480 [15] = assay: Inhibition of Wnt/beta-catenin signaling pathway in human SW480 cells assessed as CK1-alpha protein expression at 20 uM after 12 hrs by Western blotting analysis relative to vehicle-treated control
SW480 [16] = assay: Inhibition of Wnt/beta-catenin signaling pathway in human SW480 cells assessed as GSK3-beta protein expression at 10 uM after 24 hrs by Western blotting analysis relative to vehicle-treated control
SW480 [17] = assay: Inhibition of Wnt/beta-catenin signaling pathway in human SW480 cells assessed as Axin2 protein expression at 5 uM after 12 hrs by Western blotting analysis relative to vehicle-treated control
SW480 [18] = assay: Inhibition of Wnt/beta-catenin signaling pathway in human SW480 cells assessed as Axin2 protein expression at 5 uM after 24 hrs by Immunoblotting analysis relative to vehicle-treated control
SW480 [19] = assay: Inhibition of Wnt/beta-catenin signaling pathway in human SW480 cells assessed as increase in phosphorylation of beta-catenin at Ser45 at 20 uM after 12 hrs by Western blotting analysis relative to vehicle-treated control
SW480 [20] = assay: Inhibition of Wnt/beta-catenin signaling pathway in human SW480 cells assessed as dvl1 protein expression at 10 uM after 24 hrs by Western blotting analysis relative to vehicle-treated control
SW480 [21] = assay: Inhibition of Wnt/beta-catenin signaling pathway in human SW480 cells assessed as dvl1 protein expression at 10 uM after 12 hrs by Western blotting analysis relative to vehicle-treated control
SW480 [22] = assay: Inhibition of Wnt/beta-catenin signaling pathway in human SW480 cells assessed as beta-catenin protein expression at 10 uM after 24 hrs by Immunoblotting analysis relative to vehicle-treated control
SW480 [23] = assay: Inhibition of Wnt/beta-catenin signaling pathway in human SW480 cells assessed as dvl2 protein expression at 5 uM after 12 hrs by Western blotting analysis relative to vehicle-treated control
SW480 [24] = assay: Inhibition of Wnt/beta-catenin signaling pathway in human SW480 cells assessed as CK1-alpha protein expression at 5 uM after 24 hrs by Western blotting analysis relative to vehicle-treated control
SW480 [25] = assay: Inhibition of Wnt/beta-catenin signaling pathway in human SW480 cells assessed as dvl2 protein expression at 20 uM after 12 hrs by Western blotting analysis relative to vehicle-treated control
SW480 [26] = assay: Inhibition of Wnt/beta-catenin signaling pathway in human SW480 cells assessed as Axin1 protein expression at 20 uM after 24 hrs by Western blotting analysis relative to vehicle-treated control
SW480 [27] = assay: Inhibition of Wnt/beta-catenin signaling pathway in human SW480 cells assessed as increase in phosphorylation of beta-catenin at Ser45 after 24 hrs by Western blotting analysis relative to vehicle-treated control; assay type: cell-based
SW480 [28] = assay: Inhibition of Wnt/beta-catenin signaling pathway in human SW480 cells assessed as CK1-alpha protein expression at 5 uM after 12 hrs by Western blotting analysis relative to vehicle-treated control
SW480 [29] = assay: Inhibition of Wnt/beta-catenin signaling pathway in human SW480 cells assessed as increase in phosphorylation of beta-catenin at Ser45 at 10 uM after 12 hrs by Western blotting analysis relative to vehicle-treated control
SW480 [30] = assay: Inhibition of Wnt/beta-catenin signaling pathway in human SW480 cells assessed as dvl3 protein expression at 20 uM after 24 hrs by Western blotting analysis relative to vehicle-treated control
SW480 [31] = assay: Inhibition of Wnt/beta-catenin signaling pathway in human SW480 cells assessed as dvl1 protein expression at 20 uM after 24 hrs by Western blotting analysis relative to vehicle-treated control
SW480 [32] = assay: Inhibition of Wnt/beta-catenin signaling pathway in human SW480 cells assessed as Axin1 protein expression at 5 uM after 12 hrs by Western blotting analysis relative to vehicle-treated control
SW480 [33] = assay: Inhibition of Wnt/beta-catenin signaling pathway in human SW480 cells assessed as dvl3 protein expression at 10 uM after 12 hrs by Western blotting analysis relative to vehicle-treated control

Structure (SMILES): COc1cc([C@H]2Oc3ccc(-c4cc(=O)c5c(O)cc(O)cc5o4)cc3O[C@@H]2CO)ccc1O (relative stereo)
- fold change (FC) (SW480 [1]): 6.5
- fold change (FC) (SW480 [2]): 0.9
- fold change (FC) (SW480 [3]): 0.8
- fold change (FC) (SW480 [4]): 3
- fold change (FC) (SW480 [5]): 1.2
- fold change (FC) (SW480 [6]): 3.2
- growth inhibition (GI) (SW480 [7]): inactive
- fold change (FC) (SW480 [8]): 0.6
- inhibition (SW480 [9]): inactive
- fold change (FC) (SW480 [10]): 1.1
- fold change (FC) (SW480 [11]): 0.8
- inhibition (HEK293): Dose-dependent effect
- fold change (FC) (SW480 [12]): 1.4
- fold change (FC) (SW480 [13]): 2.1
- fold change (FC) (SW480 [14]): 1.2
- fold change (FC) (SW480 [15]): 1.2
- fold change (FC) (SW480 [16]): 1.2
- fold change (FC) (SW480 [17]): 1
- fold change (FC) (SW480 [18]): 1
- fold change (FC) (SW480 [19]): 4.9
- fold change (FC) (SW480 [20]): 1
- fold change (FC) (SW480 [21]): 1
- fold change (FC) (SW480 [22]): 0.7
- fold change (FC) (SW480 [23]): 1.2
- fold change (FC) (SW480 [24]): 1.1
- fold change (FC) (SW480 [25]): 0.9
- fold change (FC) (SW480 [26]): 4.2
- inhibition (SW480 [27]): Dose-dependent effect
- fold change (FC) (SW480 [28]): 0.9
- fold change (FC) (SW480 [29]): 3.6
- fold change (FC) (SW480 [30]): 1.1
- fold change (FC) (SW480 [31]): 1.2
- fold change (FC) (SW480 [32]): 1.9
- fold change (FC) (SW480 [33]): 1
